In patent publication US11712438B2, “Phenyl derivatives as PGE2 receptor modulators” (IDORSIA PHARMACEUTICALS LTD, priority 2017, dated 2023):

Legend:
Experiment in all cases: cell-based
[1] = target: PTGER2 (EP2) (Homo sapiens, UniProt P43116)
[2] = target: PTRGER4 (EP4) (Homo sapiens, UniProt P35408);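 further: assay plate preincubated 15 min at 37 °C, after which PGE2 was added at 20 nM final and incubation continued 120 min at 37 °C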
[3] = target: EP2 (Homo sapiens, UniProt P43116);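 further: SF295 glioblastoma cells with endogenous EP2 only, PGE2-stimulated cAMP accumulation read by HTRF competitive immunoassay, 45 min pre-incubation then 30 min at room temperature, IBMX in buffer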
[4] = target: EP4 (Homo sapiens, UniProt P35408);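 further: inhibition of PGE2-evoked (6 nM) cAMP accumulation in BT549 breast cancer cells endogenously expressing EP4, cAMP read by HTRF competitive immunoassay after 30 min at room temperature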
Chain of EP4 (P35408 whole entry): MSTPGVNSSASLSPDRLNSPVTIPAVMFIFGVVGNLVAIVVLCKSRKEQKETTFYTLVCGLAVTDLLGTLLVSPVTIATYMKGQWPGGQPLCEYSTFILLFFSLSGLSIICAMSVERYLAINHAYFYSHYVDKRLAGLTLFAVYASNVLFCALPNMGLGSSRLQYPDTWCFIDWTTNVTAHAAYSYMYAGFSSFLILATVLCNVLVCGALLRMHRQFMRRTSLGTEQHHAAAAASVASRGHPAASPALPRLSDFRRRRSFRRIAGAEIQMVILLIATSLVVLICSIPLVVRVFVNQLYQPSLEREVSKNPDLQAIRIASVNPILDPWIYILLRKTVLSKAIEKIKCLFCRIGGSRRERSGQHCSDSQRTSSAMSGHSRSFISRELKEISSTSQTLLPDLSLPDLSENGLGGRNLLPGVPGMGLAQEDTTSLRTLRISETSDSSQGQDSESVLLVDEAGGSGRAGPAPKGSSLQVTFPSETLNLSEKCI

Chain of PTRGER4 (EP4) (P35408 whole entry): as above
Chain of PTGER2 (EP2) (P43116 whole entry): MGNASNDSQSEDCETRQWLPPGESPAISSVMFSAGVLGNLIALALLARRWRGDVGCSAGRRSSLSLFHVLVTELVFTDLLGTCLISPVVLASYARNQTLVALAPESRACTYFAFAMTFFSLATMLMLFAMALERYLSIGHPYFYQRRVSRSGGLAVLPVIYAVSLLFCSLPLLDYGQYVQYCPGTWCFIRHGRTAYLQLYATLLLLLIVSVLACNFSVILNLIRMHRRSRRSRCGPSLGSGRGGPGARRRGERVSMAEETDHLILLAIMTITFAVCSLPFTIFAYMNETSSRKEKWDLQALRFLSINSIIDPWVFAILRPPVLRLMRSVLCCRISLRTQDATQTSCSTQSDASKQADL
Chain of EP2 (P43116 whole entry): as above

| IC50 [1] [nM] | IC50 [2] [nM] | IC50 [3] [nM] | IC50 [4] [nM] | Compound |
| --- | --- | --- | --- | --- |
| 358 | 1090 | 311 | 440 | CCOc1cc(-c2cc(NCCc3ccc(Br)cc3)ncn2)ccc1C(=O)O [Example 11, 4-{6-[2-(4-Bromo-phenyl)-ethylamino]-pyrimidin-4-yl}-2-ethoxy-benzoic acid] |
| 86 | 420 | 45 | 46 | COc1cc(C)c(C)cc1CCNc1cc(-c2ccc(C(=O)O)c(SC)c2)ncn1 [Example 3, 4-{6-[2-(2-Methoxy-4,5-dimethyl-phenyl)-ethylamino]-pyrimidin-4-yl}-2-methylsulfanyl-benzoic acid] |
| 294 | 20 | 615 | 21 | CCOc1cc(-c2cc(NCCc3ccc(OC(F)(F)F)cc3OC)ncn2)sc1C(=O)O [Example 210, 3-Ethoxy-5-{6-[2-(2-methoxy-4-trifluoromethoxy-phenyl)-ethylamino]-pyrimidin-4-yl}-thiophene-2-carboxylic acid] |
| 302 | 96 | 332 | 42 | CCOc1cc(-c2cc(NCCc3ccc(C(F)(F)F)cc3OC(F)F)ncn2)sc1C(=O)O [Example 219, 5-{6-[2-(2-Difluoromethoxy-4-trifluoromethyl-phenyl)-ethylamino]-pyrimidin-4-yl}-3-ethoxy-thiophene-2-carboxylic acid] |
| 277 | 202 | 128 | 81 | CC(C)Cc1cc(-c2cc(NCCc3c(F)cc(Br)cc3F)ncn2)ccc1C(=O)O [Example 38, 4-{6-[2-(4-Bromo-2,6-difluoro-phenyl)-ethylamino]-pyrimidin-4-yl}-2-isobutyl-benzoic acid] |
| 39 |  | 72 | 684 | CCOc1cc(Br)ccc1CCNc1cc(-c2ccc(C(=O)O)c(OCC)c2)ncn1 [Example 51, 4-{6-[2-(4-Bromo-2-ethoxy-phenyl)-ethylamino]-pyrimidin-4-yl}-2-ethoxy-benzoic acid] |
| 24 | 43 | 58 | 106 | CCOc1cc(-c2cc(NCCc3ccc(Cl)cc3C#N)ncn2)sc1-c1noc(=O)[nH]1 [Example 96] |
| 12 | 9 | 44 | 14 | CNc1cc(-c2cc(NCCc3c(F)cc(Br)cc3F)ncn2)ccc1-c1noc(=O)[nH]1 [Example 296, 3-(4-{6-[2-(4-Bromo-2,6-difluoro-phenyl)-ethylamino]-pyrimidin-4-yl}-2-methylamino-phenyl)-[1,2,4]oxadiazol-5(4H)-one] |
| 17 | 3 | 10 | 58 | CCCOc1cc(Br)ccc1CCNc1cc(-c2cc(OCC)c(-c3noc(=O)[nH]3)s2)ncn1 [Example 89, 3-(5-{6-[2-(4-Bromo-2-propoxy-phenyl)-ethylamino]-pyrimidin-4-yl}-3-ethoxy-thiophen-2yl)-[1,2,4]oxadiazol-5(4H)-one] |
| 74 | 68 | 221 | 241 | CNc1cc(-c2cc(NCCc3c(F)cc(Br)cc3F)ncn2)ccc1C(=O)NCCOC [Example 277, 4-{6-[2-(4-Bromo-2,6-difluoro-phenyl)-ethylamino]-pyrimidin-4-yl}-N-(2-methoxy-ethyl)-2-methylamino-benzamide] |
| 39 | 100 | 8 | 14 | O=C(O)c1sc(-c2cc(NCCc3c(F)cc(Br)cc3F)ncn2)cc1Cl [Example 31, 5-{6-[2-(4-Bromo-2,6-difluoro-phenyl)-ethylamino]-pyrimidin-4-yl}-3-chloro-thiophene-2-carboxylic acid] |
| 488 | 310 | 234 | 88 | CCOc1cc(-c2cc(NCCc3cccc(C(=O)OC)c3)ncn2)sc1C(=O)O [Example 76, 3-Ethoxy-5-{6-[2-(3-methoxycarbonyl-phenyl)-ethylamino]-pyrimidin-4-yl}-thiophene-2-carboxylic acid] |
| 10 | 3 | 12 | 8 | CCOc1cc(C(F)(F)F)ccc1CCNc1cc(-c2cc(OCC)c(C(=O)O)s2)ncn1 [Example 215, 3-Ethoxy-5-{6-[2-(2-ethoxy-4-trifluoromethyl-phenyl)-ethylamino]-pyrimidin-4-yl}-thiophene-2-carboxylic acid] |
| 48 | 4 | 68 | 4 | CCOc1cc(-c2cc(NCCc3ccc(OC)cc3F)ncn2)sc1-c1noc(=O)[nH]1 [Example 92, 3-(3-Ethoxy-5-{6-[2-(2-fluoro-4-methoxy-phenyl)-ethylamino]-pyrimidin-4-yl}-thiophen-2yl)-[1,2,4]oxadiazol-5(4H)-one] |
| 138 | 41 | 900 | 326 | CCOc1c(C(N)=O)sc(-c2cc(NCCc3c(F)cc(Br)cc3F)ncn2)c1Cl [Example 293, 5-{6-[2-(4-Bromo-2,6-difluoro-phenyl)-ethylamino]-pyrimidin-4-yl}-4-chloro-3-ethoxy-thiophene-2-carboxylic acid amide] |
| 53 | 14 | 83 | 50 | CCOc1cc(-c2cc(NCCc3c(F)ccc(Cl)c3F)ncn2)sc1-c1noc(=O)[nH]1 [Example 98, 3-(5-{6-[2-(3-Chloro-2,6-difluoro-phenyl)-ethylamino]-pyrimidin-4-yl}-3-ethoxy-thiophen-2yl)-[1,2,4]oxadiazol-5(4H)-one] |
| 35 | 1 | 49 | 10 | CCOc1cc(-c2cc(NCCc3ccc(Br)c(Cl)c3)ncn2)sc1-c1noc(=O)[nH]1 [Example 106, 3-(5-{6-[2-(4-Bromo-3-chloro-phenyl)-ethylamino]-pyrimidin-4-yl}-3-ethoxy-thiophen-2-yl)-[1,2,4]oxadiazol-5(4H)-one] |
| 21 | 457 | 74 | 1380 | O=C(O)c1ccc2cc(-c3cc(NCCc4c(F)cc(Br)cc4F)ncn3)[nH]c2c1 [Example 169, 2-{6-[2-(4-Bromo-2,6-difluoro-phenyl)-ethylamino]-pyrimidin-4-yl}-1H-indole-6-carboxylic acid] |
| 6 | 2 | 9 | 3 | CCOc1cc(-c2cc(NCCc3c(F)cc(Br)cc3F)ncn2)sc1-c1noc(=O)[nH]1 [Example 110, 3-(5-{6-[2-(4-Bromo-2,6-difluoro-phenyl)-ethylamino]-pyrimidin-4-yl}-3-ethoxy-thiophen-2yl)-[1,2,4]oxadiazol-5(4H)-one] |
| 176 |  | 149 | 458 | CCOc1cc(-c2cc(NCCc3ccccc3Cl)ncn2)sc1C(=O)O [Example 78, 5-{6-[2-(2-Chloro-phenyl)-ethylamino]-pyrimidin-4-yl}-3-ethoxy-thiophene-2-carboxylic acid] |
| 260 |  | 139 | 554 | CCOc1cc(-c2cc(NCCc3ccccc3Br)ncn2)sc1C(=O)O [Example 70, 5-{6-[2-(2-Bromo-phenyl)-ethylamino]-pyrimidin-4-yl}-3-ethoxy-thiophene-2-carboxylic acid] |
